In patent US9617251B2, “Indanylaminopyridylcyclopropanecarboxylic acids, pharmaceutical compositions and uses thereof” (BOEHRINGER INGELHEIM INTERNATIONAL GMBH, priority 2015, dated 2017):
pEC50, pIC50: −log10 of the molar value. ≈ marks a conversion by molar mass, not a printed value.

Experiments:
[1] = biological target: human GPR40 receptor (Homo sapiens, UniProt O14842); assay: IP1 accumulation measurements using the IPOne assay system (1321N1 cells stably expressing human GPR40 receptor); assay type: cell-based; details: 1321N1 cells expressing human GPR40, 1 h stimulation at 37° C.
Chain of human GPR40 receptor (O14842 whole entry): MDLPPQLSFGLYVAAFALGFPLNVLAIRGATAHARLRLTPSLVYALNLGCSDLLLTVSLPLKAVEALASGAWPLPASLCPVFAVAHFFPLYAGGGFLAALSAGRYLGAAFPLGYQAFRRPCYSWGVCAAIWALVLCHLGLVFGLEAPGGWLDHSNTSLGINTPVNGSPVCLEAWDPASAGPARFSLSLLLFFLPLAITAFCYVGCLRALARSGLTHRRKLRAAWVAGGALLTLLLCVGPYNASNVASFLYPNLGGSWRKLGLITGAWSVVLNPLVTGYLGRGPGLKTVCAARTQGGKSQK
Method: IP1 accumulation measurements using the IPOne assay system—1321N1 cells stably expressing human GPR40 receptor (Euroscreen, Belgium) are seeded 24 h before the assay in white 384-well plates in culture medium containing 10% FCS, 1% Na-Pyruvate and 400 μg/mL G418. IP1 is assayed according to the manufacturer's description (Cisbio Bioassays, France). In brief, the assay is started by substitution of the culture medium by stimulation buffer (Hepes 10 mM, CaCl2 1 mM, MgCl2 0.5 mM, KCl 4.2 mM, NaCl 146 mM, glucose 5.5 mM and LiCl 50 mM, pH 7.4). Cells are stimulated for 1 h at 37° C., 5% CO2 by addition of the compounds that are diluted in stimulation buffer containing LiCl. Assays are stopped by adding HTRF-conjugates (IP1-d2 and Anti-IP1 cryptate Tb) and lysis buffer, provided by the manufacturer. After an incubation time of 1 h at room temperature plates are measured using an EnVision™, Perkin Elmer. The obtained fluorescence ratios at 665/615 […] are then used to calculate the pEC50 values using Assay Explorer 3.3 Software (Accelrys, Inc.) by interpolation using an IP1 reference curve and subsequent sigmoidal curve fitting allowing for a variable hill slope.

[2] = Aqueous solubility in buffer vs acetonitrile/water (1/1), LC-UV; assay type: physicochemical; details: kinetic from dmso stock, buffer pH 2.2, 24 h shaking, 2.5% DMSO
Method: The aqueous solubility of the compounds of the invention is determined by comparing the amount dissolved in buffer to the amount in an acetonitrile/water (1/1) solution. Starting from a 10 mM DMSO stock solution aliquots are diluted with acetonitrile/water (1/1) or buffer, respectively. After 24 h of shaking, the solutions are filtrated and analyzed by LC-UV. The amount dissolved in buffer is compared to the amount in the acetonitrile solution.
Solubility is usually being measured from 0.001 to 0.125 mg/mL at a DMSO concentration of 2.5%. If more than 90% of the compound is dissolved in buffer, the value is marked with “>”.

[3] = biological target: T1, cytochrome P450 2C8-isoenzyme (Homo sapiens, UniProt P10632); assay: Inhibition of CYP-2C8 (deethylation of amodiaquine, human liver microsomes); assay type: in vitro ADME; details: CYP-2C8, human liver microsomes, amodiaquine 1 μM, 37° C.
T1 construct: from tissue; host or cells: human liver microsomes
T1 sequence (P10632 1-490): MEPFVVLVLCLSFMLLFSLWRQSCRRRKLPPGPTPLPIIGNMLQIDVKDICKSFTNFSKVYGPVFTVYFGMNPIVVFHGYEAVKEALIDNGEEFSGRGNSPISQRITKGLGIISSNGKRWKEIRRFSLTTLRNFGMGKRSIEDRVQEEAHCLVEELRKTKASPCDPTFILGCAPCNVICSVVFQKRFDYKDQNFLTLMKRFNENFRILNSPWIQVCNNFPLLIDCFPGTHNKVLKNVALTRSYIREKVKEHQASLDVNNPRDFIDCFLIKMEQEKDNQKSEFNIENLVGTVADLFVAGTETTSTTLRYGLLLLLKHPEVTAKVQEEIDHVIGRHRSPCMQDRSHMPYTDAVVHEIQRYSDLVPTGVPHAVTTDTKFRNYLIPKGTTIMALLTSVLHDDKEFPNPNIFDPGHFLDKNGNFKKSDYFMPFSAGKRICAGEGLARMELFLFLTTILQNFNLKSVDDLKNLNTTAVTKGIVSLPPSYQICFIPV
Method: The inhibition of cytochrome P450 2C8-isoenzyme catalyzed deethylation of amodiaquine by the test compound is assayed at 37° C. with human liver microsomes. All assays are carried out on a robotic system in 96 well plates. The final incubation volume contains TRIS buffer (0.1 M), MgCl2 (5 mM), human liver microsomes (0.05 mg/mL), amodiaquine (1 μM) and the test compound at five different concentrations or no compound (high control) in duplicate (e.g. highest concentration 10-50 μM with subsequent serial 1:4 dilutions). Following a short preincubation period, reactions are started with the cofactor (NADPH, 1 mM) and stopped by cooling the incubation down to 8° C. and subsequently by addition of one volume of acetonitrile. An internal standard solution—the stable isotope d5-desethylamodiaquine—is added after quenching of incubations. Peak area analyte (=metabolite formed) and internal standard is determined by LC-MS/MS. The resulting peak area ratio analyte to internal standard in these incubations is compared to a control activity containing no test compound. Within each of the assay runs, the IC50 of a positive control inhibitor (Montelukast) is determined. Experimental IC50 values are calculated by least square regression according to the following equation: % control activity=(100% control activity/(1+(I/IC50)S))−B with I=inhibitor concentration; S=slope factor; B=background activity (lower plateau of the inhibition curve)
(§1) If the inhibition of the reaction is already >50% at the lowest concentration of the test compound, the IC50 is assigned “<lowest concentration tested” (usually <0.4 μM). If the inhibition of the reaction is still <50% at the highest concentration of the test compound, the IC50 is assigned “>highest concentration tested” (usually >50 μM).

[4] = biological target: T2, cytochrome P450 2C9-isoenzyme (Homo sapiens, UniProt P11712); assay: Inhibition of CYP-2C9 (hydroxylation of diclofenac, human liver microsomes); assay type: in vitro ADME; details: CYP-2C9, human liver microsomes, diclofenac 10 μM, 37° C.
T2 construct: from tissue; host or cells: human liver microsomes
T2 sequence (P11712 whole entry): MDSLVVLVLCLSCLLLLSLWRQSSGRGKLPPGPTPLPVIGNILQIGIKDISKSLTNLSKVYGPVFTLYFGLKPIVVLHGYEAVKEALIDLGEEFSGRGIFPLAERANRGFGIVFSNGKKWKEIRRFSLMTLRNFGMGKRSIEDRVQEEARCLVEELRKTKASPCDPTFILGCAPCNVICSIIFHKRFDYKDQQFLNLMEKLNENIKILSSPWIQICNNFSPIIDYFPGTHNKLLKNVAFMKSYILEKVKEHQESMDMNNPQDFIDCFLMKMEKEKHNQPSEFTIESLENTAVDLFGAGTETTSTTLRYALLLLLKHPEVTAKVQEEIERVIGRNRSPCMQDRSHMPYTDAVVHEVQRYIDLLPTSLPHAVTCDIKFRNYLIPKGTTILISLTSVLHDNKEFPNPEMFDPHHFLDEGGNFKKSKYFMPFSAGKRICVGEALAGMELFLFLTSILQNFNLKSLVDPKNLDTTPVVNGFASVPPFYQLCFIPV
Method: The inhibition of cytochrome P450 2C9-isoenzyme catalyzed hydroxylation of diclofenac by the test compound is assayed at 37° C. with human liver microsomes. All assays are carried out on a robotic system in 96 well plates. The final incubation volume contains TRIS buffer (0.1 M), MgCl2 (5 mM), human liver microsomes (0.1 mg/mL), diclofenac (10 μM) and the test compound at five different concentrations or no compound (high control) in duplicate (e.g., highest concentration 10-50 μM with subsequent serial 1:4 dilutions). Following a short preincubation period, reactions are started with the cofactor (NADPH, 1 mM) and stopped by cooling the incubation down to 8° C. and subsequently by addition of one volume of acetonitrile. An internal standard solution—the stable isotope ^13C6-hydroxydiclofenac—is added after quenching of incubations. Peak area analyte (=metabolite formed) and internal standard is determined by LC-MS/MS. The resulting peak area ratio analyte to internal standard in these incubations is compared to a control activity containing no test compound. Within each of the assay runs, the IC50 of a positive control inhibitor (sulfaphenazole) is determined. Experimental IC50 values are calculated by least square regression according to the following equation: % control activity=(100% control activity/(1+(I/IC50)S))−B with I=inhibitor concentration; S=slope factor; B=background activity (lower plateau of the inhibition curve)
as §1

SMILES: Cc1cc(OCC2CCOC2)cc(C)c1-c1ccc(F)c2c1CC[C@H]2Nc1ccc([C@H]2C[C@@H]2C(=O)O)cn1 (some centres unmarked) [Example 16]
- pEC50 [1]: 7.96
- solubility at 24 h [2]: 110 µg/mL (≈ 213 µM)
- pIC50 [3]: 4.34
- pIC50 [4]: < 4.30

SMILES: Cc1cccc(C)c1-c1ccc(F)c2c1CC[C@H]2Nc1ccc([C@H]2C[C@@H]2C(=O)O)cn1 [Example 17]
- pEC50 [1]: 7.89
- solubility at 24 h [2]: 65 µg/mL (≈ 156 µM)
- pIC50 [3]: 4.47
- pIC50 [4]: 4.44

SMILES: Cc1cc(-c2nnnn2CC(C)(C)O)cc(C)c1-c1ccc(F)c2c1CC[C@H]2Nc1ccc([C@H]2C[C@@H]2C(=O)O)cn1 [Example 24]
- pEC50 [1]: 6.50
- solubility at 24 h [2]: 103 µg/mL (≈ 185 µM)
- pIC50 [3]: < 4.30
- pIC50 [4]: < 4.30

SMILES: Cc1cc(-c2nnn[nH]2)cc(C)c1-c1ccc(F)c2c1CC[C@H]2Nc1ccc([C@H]2C[C@@H]2C(=O)O)cn1 [Example 25]
- pEC50 [1]: 6.75
- solubility at 24 h [2]: 67 µg/mL (≈ 138 µM)
- pIC50 [3]: 5.40
- pIC50 [4]: < 4.30

SMILES: Cc1cc(CO)cc(C)c1-c1ccc(F)c2c1CC[C@H]2Nc1ccc([C@H]2C[C@@H]2C(=O)O)cn1 [Example 28]
- pEC50 [1]: 7.15
- solubility at 24 h [2]: 87 µg/mL (≈ 195 µM)
- pIC50 [3]: < 4.30
- pIC50 [4]: < 4.30

SMILES: Cc1cc(OCC(C)(C)O)cc(C)c1-c1ccc(F)c2c1CC[C@H]2Nc1ccc([C@H]2C[C@@H]2C(=O)O)cn1 [Example 29]
- pEC50 [1]: 7.77
- solubility at 24 h [2]: 111 µg/mL (≈ 220 µM)
- pIC50 [3]: < 4.30
- pIC50 [4]: < 4.30

SMILES: Cc1cc(OCc2ccccc2)cc(C)c1-c1ccc(F)c2c1CC[C@H]2Nc1ccc([C@H]2C[C@@H]2C(=O)O)cn1 [Example 32]
- pEC50 [1]: 7.46
- solubility at 24 h [2]: < 1 µg/mL
- pIC50 [3]: 4.92
- pIC50 [4]: 4.62

SMILES: Cc1cc(OCC2(C)COC2)cc(C)c1-c1ccc(F)c2c1CC[C@H]2Nc1ccc([C@H]2C[C@@H]2C(=O)O)cn1 [Example 33]
- pEC50 [1]: 7.85
- solubility at 24 h [2]: 103 µg/mL (≈ 199 µM)
- pIC50 [3]: 4.59
- pIC50 [4]: < 4.30

SMILES: Cc1cc(OCC(=O)O)cc(C)c1-c1ccc(F)c2c1CC[C@H]2Nc1ccc([C@H]2C[C@@H]2C(=O)O)cn1 [Example 34]
- pEC50 [1]: 5.38
- solubility at 24 h [2]: 73 µg/mL (≈ 149 µM)
- pIC50 [3]: < 4.30
- pIC50 [4]: < 4.30

SMILES: Cc1cc(-c2ccc(=O)n(C)c2)cc(C)c1-c1ccc(F)c2c1CC[C@H]2Nc1ccc([C@H]2C[C@@H]2C(=O)O)cn1 [Example 37]
- pEC50 [1]: 7.96
- solubility at 24 h [2]: 113 µg/mL (≈ 216 µM)
- pIC50 [3]: 4.77
- pIC50 [4]: < 4.30

SMILES: N#Cc1cccc(C#N)c1-c1ccc(F)c2c1CC[C@H]2Nc1ccc([C@H]2C[C@@H]2C(=O)O)cn1 [Example 44]
- pEC50 [1]: 5.38
- solubility at 24 h [2]: > 158 µg/mL
- pIC50 [3]: < 4.30
- pIC50 [4]: < 4.30
